Laboratory results: patent publication US7160690B2, “Nitrate sensor” (Arete Associates, priority 2001, dated 2007)
Read-outs that look alike come from different tables or passages of the source.

How the values were obtained:
[1] = system: molybdenum-molybdopterin (Mo-MPT) center of nitrate reductase; conditions: for lowest nitrate concentration at which quenching of the emission signal is observed: FIG. 8
Procedure: Instead, the biosensor method of this invention uses fluorescence detection to sense nitrate 30 levels.
Once the Mo-MPT 10 is obtained, its initial fluorescence signal is measured.
The quenched fluorescence (Q) is a function of the maximum possible quenching at an infinite nitrate concentration (Qmax) and the affinity of nitrate for its binding site (Kd) in the vicinity of its binding site, or Mo-MPT 10. Thus, it follows Q=(Q max [nitrate])/(Kd+[nitrate]) where: • Q is the quenched fluorescence; • Qmax is maximal quenching at infinite concentration of nitrate; and • Kd is nitrate affinity for the binding site. Quenching can also be considered in terms of: F=Fo−Q where: • F is the fluorescence in the presence of nitrate; • Fo is the fluorescence in the absence of nitrate; and • Q is the quenched fluorescence.
The data was used to calculate Qmax and Kd based on the above equations.
(§1) To further investigate the quenching of Mo-MPT 10 by nitrate 30, a comparison study was performed comparing quenching of Mo-MPT 10 versus FAD 14 by nitrate 30. […] The data line labeled 38 represents quenching of FAD 14, while the data line labeled 40 represents quenching of Mo-MPT 10.

nitrate reductase = conditions: read-out: Michaelis constant (Km) of nitrate reduction; nitrate concentration at which the reaction is half maximal; cited from earlier work
FAD = conditions: 0 to 20 ppm nitrate; FIG. 10, data line 38
Procedure: as §1

O=[N+]([O-])O [nitrate]
type of fluorescence quenching of Mo-MPT by nitrate ([1]; 0 to 4 ppm nitrate, FIG. 10, data line 40): static quenching | Qmax (maximal quenching at infinite concentration of nitrate) ([1]; fluorescence at 440 nm, FIG. 9, exceeds unity, believed to be an experimental artifact): 1.07 | lowest nitrate concentration at which quenching of the emission signal is observed ([1]; nitrate added at 0.3 ppm to 3.4 ppm): 0.3 ppm | Kd ([1]; read-out: Kd (nitrate affinity for the binding site, Mo-MPT), fluorescence at 440 nm, fit of Q=(Qmax[nitrate])/(Kd+[nitrate]), FIG. 9): 20 µM | lowest nitrate concentration at which quenching of the emission signal is observed ([1]; same as 0.3 ppm): 23 µmol | Km (nitrate reductase): 13 µM | type of fluorescence quenching of FAD by nitrate / interaction (FAD): no specific interaction
